# Where two headings read alike, the source gives them in different places.
# What was measured:
# Type in all cases: cell-based
# Botrytis cinerea = experiment: Fungicidal activity against Botrytis cinerea, micro titer plate (MTP) test; settings: Botrytis cinerea, 168 h, read-out: Observed efficacy
# Leptosphaeria nodorum = experiment: Fungicidal activity against Leptosphaeria nodorum, microtiter plate (MTP) test
# [1] = system: Colletotrichum orbiculare; experiment: Fungicidal activity against Colletotrichum orbiculare in the microtiterplate test; settings: for inhibition of growth at 6.3e-05 ppm: 0.000063 ppm
# Septoria tritici = experiment: Fungicidal activity against Septoria tritici, micro titer plate (MTP) test; settings: Zymoseptoria tritici, 168 h, read-out: Observed efficacy
# Pyricularia oryzae = experiment: microbe, parasite or virus in culture; settings: Pyricularia oryzae, 168 h, read-out: Observed efficacy
# [2] = Parastagonospora nodorum, 168 h, 0.063 ppm, read-out: Observed efficacy
# [3] = Colletotrichum orbiculare, read-out: Observed efficacy
# [4] = Table V.4, component B alone, 0.063 ppm
# [5] = Colletotrichum orbiculare, 0.25 ppm, read-out: Observed efficacy
# [6] = Parastagonospora nodorum, 168 h, read-out: Observed efficacy
# [7] = Table V.4, component B alone, 0.25 ppm
# [8] = Parastagonospora nodorum, 168 h, 0.25 ppm, read-out: Observed efficacy
# [9] = Parastagonospora nodorum, 168 h, 0.004 ppm, read-out: Observed efficacy
# [10] = Colletotrichum orbiculare, 0.016 ppm, read-out: Observed efficacy
# [11] = Colletotrichum orbiculare, 0.063 ppm, read-out: Observed efficacy
# [12] = Colletotrichum orbiculare, 0.00025 ppm, read-out: Observed efficacy
# [13] = Colletotrichum orbiculare, 0.001 ppm, read-out: Observed efficacy
structure (smiles),measurement,setting,value
"CNC(=O)C(=N/OC)/C(C)=C\COc1ccn(-c2ccc(Cl)cc2Cl)n1 [A.1.34, (Z,2E)-5-[1-(2,4-dichlorophenyl)pyrazol-3-yl]-oxy-2-methoxyimino-N,3-dimethyl-pent-3-enamide]",inhibition of growth at 16 ppm,Botrytis cinerea; component B alone,2%
same,inhibition of growth at 63 ppm,Botrytis cinerea; component B alone,18%
same,inhibition of growth at […],Leptosphaeria nodorum; [2],45%
same,inhibition of growth at 6.3e-05 ppm,[1]; [3],37%
"Cn1nc(C(F)F)c(C(=O)Nc2ccccc2Oc2ccc(C(F)(F)F)cc2Cl)c1F [A.3.29, N-[2-[2-chloro-4-(trifluoromethyl)phenoxy]phenyl]-3-(difluoromethyl)-5-fluoro-1-methyl-pyrazole-4-carboxamide]",inhibition of growth at […],Septoria tritici; [4],68%
same,inhibition of growth at […],"Botrytis cinerea; component B alone, 0.25 ppm",55%
same,inhibition of growth at 1 ppm,Pyricularia oryzae,14%
same,inhibition of growth at […],[1]; [5],4%
same,inhibition of growth at 1 ppm,[1]; [3],11%
"CCCCNC(=O)n1c(NC(=O)OC)nc2ccccc21 [Benomyl, benomyl]",inhibition of growth at […],"Botrytis cinerea; component B alone, 0.016 ppm",8%
same,inhibition of growth at 1 ppm,Leptosphaeria nodorum; [6],15%
same,inhibition of growth at 9 ppm,"[1]; Colletotrichum orbiculare, 9 ppm, read-out: Observed efficacy",38%
"O=C1C2CC=CCC2C(=O)N1SC(Cl)(Cl)Cl (stereo not shown) [Captan, captan]",inhibition of growth at […],Septoria tritici; [7],22%
same,inhibition of growth at […],"Botrytis cinerea; component B alone, 0.25 ppm",20%
same,inhibition of growth at 1 ppm,Botrytis cinerea; component B alone,73%
same,inhibition of growth at 1 ppm,Pyricularia oryzae,53%
same,inhibition of growth at […],Leptosphaeria nodorum; [8],13%
same,inhibition of growth at 1 ppm,Leptosphaeria nodorum; [6],44%
same,inhibition of growth at […],[1]; [5],21%
"N#Cc1c(Cl)c(Cl)c(Cl)c(C#N)c1Cl [Chlorothalonil, chlorothalonil]",inhibition of growth at […],Septoria tritici; [7],25%
same,inhibition of growth at 1 ppm,Botrytis cinerea; component B alone,22%
same,inhibition of growth at 1 ppm,Leptosphaeria nodorum; [6],72%
"Cc1ccc(-c2c(Cl)nc(C#N)n2S(=O)(=O)N(C)C)cc1 [Cyazofamid, cyazofamid]",inhibition of growth at 4 ppm,"Septoria tritici; Table V.4, component B alone",2%
same,inhibition of growth at 16 ppm,"Septoria tritici; Table V.4, component B alone",8%
same,inhibition of growth at 4 ppm,Pyricularia oryzae,13%
same,inhibition of growth at […],Leptosphaeria nodorum; [8],6%
"Cc1cc(C2CC2)nc(Nc2ccccc2)n1 [Cyprodinil, cyprodinil]",inhibition of growth at 1 ppm,Botrytis cinerea; component B alone,66%
same,inhibition of growth at 1 ppm,Pyricularia oryzae,56%
same,inhibition of growth at 0.004 ppm,Leptosphaeria nodorum; [9],71%
same,inhibition of growth at 1 ppm,[1]; [3],35%
same,inhibition of growth at 4 ppm,[1]; [3],38%
"CC1COC(Cn2cncn2)(c2ccc(Oc3ccc(Cl)cc3)cc2Cl)O1 (stereo not shown) [Difenoconazol, difenoconazole]",inhibition of growth at […],"Septoria tritici; Table V.4, component B alone, 0.016 ppm",4%
same,inhibition of growth at […],Leptosphaeria nodorum; [2],41%
same,inhibition of growth at […],[1]; [10],1%
same,inhibition of growth at […],[1]; [5],14%
"COc1ccc(C(=CC(=O)N2CCOCC2)c2ccc(Cl)cc2)cc1OC [Dimethomorph, dimethomorph]",inhibition of growth at 4 ppm,"Septoria tritici; Table V.4, component B alone",11%
same,inhibition of growth at 1 ppm,Pyricularia oryzae,4%
same,inhibition of growth at 4 ppm,Pyricularia oryzae,8%
same,inhibition of growth at 4 ppm,Leptosphaeria nodorum; [6],41%
same,inhibition of growth at 4 ppm,[1]; [3],21%
"CC(Cc1ccc(C(C)(C)C)cc1)CN1CCCCC1 (stereo not shown) [Fenpropidin, fenpropidin]",inhibition of growth at 1 ppm,"Septoria tritici; Table V.4, component B alone",1%
same,inhibition of growth at 4 ppm,Botrytis cinerea; component B alone,28%
same,inhibition of growth at 1 ppm,Leptosphaeria nodorum; [6],38%
same,inhibition of growth at 1 ppm,[1]; [3],9%
same,inhibition of growth at 4 ppm,[1]; [3],47%
"CC(Cc1ccc(C(C)(C)C)cc1)CN1C[C@@H](C)O[C@@H](C)C1 (stereo partly shown) [Fenpropimorph, fenpropimorph]",inhibition of growth at […],Septoria tritici; [7],0%
same,inhibition of growth at […],"Botrytis cinerea; component B alone, 0.25 ppm",29%
same,inhibition of growth at 1 ppm,Pyricularia oryzae,8%
same,inhibition of growth at […],[1]; [5],5%
same,inhibition of growth at 1 ppm,[1]; [3],19%
"CO/N=C(/C1=NOCCO1)c1ccccc1Oc1ncnc(Oc2ccccc2Cl)c1F [Fluoxastrobin, fluoxastrobin]",inhibition of growth at […],Septoria tritici; [4],3%
same,inhibition of growth at […],Septoria tritici; [7],32%
same,inhibition of growth at […],Leptosphaeria nodorum; [8],38%
same,inhibition of growth at […],[1]; [11],51%
"O=C1c2ccccc2C(=O)N1SC(Cl)(Cl)Cl [Folpet, folpet]",inhibition of growth at 1 ppm,"Septoria tritici; Table V.4, component B alone",70%
same,inhibition of growth at 1 ppm,Botrytis cinerea; component B alone,13%
same,inhibition of growth at 1 ppm,Pyricularia oryzae,14%
same,inhibition of growth at 1 ppm,Leptosphaeria nodorum; [6],40%
same,inhibition of growth at 1 ppm,[1]; [3],20%
"CNC(=O)c1ccc(-c2noc(C(F)(F)F)n2)cc1 [I.A, N-methyl-4-[5-(trifluoromethyl)-1,2,4-oxadiazol-3-yl]benzamide]",inhibition of growth at […],"Septoria tritici; Table V.7, I.A alone, 0.063 ppm",3%
same,inhibition of growth at […],"Septoria tritici; Table V.7, I.A alone, 0.25 ppm",2%
same,inhibition of growth at 1 ppm,"Septoria tritici; Table V.7, I.A alone",0%
same,inhibition of growth at 4 ppm,"Septoria tritici; Table V.7, I.A alone",8%
same,inhibition of growth at 16 ppm,"Septoria tritici; Table V.7, I.A alone",19%
same,inhibition of growth at […],"Botrytis cinerea; I.A alone, 0.25 ppm",3%
same,inhibition of growth at 4 ppm,Botrytis cinerea; I.A alone,1%
same,inhibition of growth at 16 ppm,Botrytis cinerea; I.A alone,12%
same,inhibition of growth at 1 ppm,Pyricularia oryzae,6%
same,inhibition of growth at 4 ppm,Pyricularia oryzae,12%
same,inhibition of growth at 16 ppm,Pyricularia oryzae,38%
same,inhibition of growth at […],Leptosphaeria nodorum; [2],3%
same,inhibition of growth at 1 ppm,Leptosphaeria nodorum; [6],6%
same,inhibition of growth at 4 ppm,Leptosphaeria nodorum; [6],14%
same,inhibition of growth at 16 ppm,Leptosphaeria nodorum; [6],27%
same,inhibition of growth at […],[1]; [12],2%
same,inhibition of growth at 0.001 ppm,[1]; [13],2%
same,inhibition of growth at 0.004 ppm,[1]; [3],2%
same,inhibition of growth at […],[1]; [10],2%
same,inhibition of growth at […],[1]; [11],71%
"O=C(Nc1ccccc1F)c1ccc(-c2noc(C(F)(F)F)n2)cc1 [I.E, N-(2-fluorophenyl)-4-[5-(trifluoromethyl)-1,2,4-oxadiazol-3-yl]benzamide]",inhibition of growth at […],"Septoria tritici; Table V.6, I.E alone, 0.25 ppm",13%
same,inhibition of growth at 4 ppm,"Septoria tritici; Table V.6, I.E alone",7%
same,inhibition of growth at 16 ppm,"Septoria tritici; Table V.6, I.E alone",13%
same,inhibition of growth at 63 ppm,"Septoria tritici; Table V.6, I.E alone, 63 ppm",14%
same,inhibition of growth at […],"Botrytis cinerea; I.E alone, 0.063 ppm",2%
same,inhibition of growth at 1 ppm,Botrytis cinerea; I.E alone,2%
same,inhibition of growth at 4 ppm,Botrytis cinerea; I.E alone,2%
same,inhibition of growth at 16 ppm,Botrytis cinerea; I.E alone,3%
same,inhibition of growth at 63 ppm,Botrytis cinerea; I.E alone,16%
same,inhibition of growth at 1 ppm,Pyricularia oryzae,5%
same,inhibition of growth at 4 ppm,Pyricularia oryzae,5%
same,inhibition of growth at 16 ppm,Pyricularia oryzae,6%
same,inhibition of growth at 63 ppm,Pyricularia oryzae,9%
same,inhibition of growth at 16 ppm,Leptosphaeria nodorum; [6],18%
same,inhibition of growth at 63 ppm,"Leptosphaeria nodorum; Parastagonospora nodorum, 168 h, 63 ppm, read-out: Observed efficacy",22%
same,inhibition of growth at […],[1]; [5],4%
same,inhibition of growth at 1 ppm,[1]; [3],4%
same,inhibition of growth at 4 ppm,[1]; [3],11%
same,inhibition of growth at 16 ppm,"[1]; Colletotrichum orbiculare, 16 ppm, read-out: Observed efficacy",52%
"CNC(=S)c1ccc(-c2noc(C(F)(F)F)n2)cc1 [I.M, N-methyl-4-[5-(trifluoromethyl)-1,2,4-oxadiazol-3-yl]benzenecarbothioamide]",inhibition of growth at […],"Septoria tritici; Table V.5, I.M alone, 0.063 ppm",14%
same,inhibition of growth at […],"Septoria tritici; Table V.5, I.M alone, 0.25 ppm",23%
same,inhibition of growth at 1 ppm,"Septoria tritici; Table V.5, I.M alone",35%
same,inhibition of growth at 4 ppm,"Septoria tritici; Table V.5, I.M alone",42%
same,inhibition of growth at […],"Botrytis cinerea; I.M alone, 0.063 ppm",1%
same,inhibition of growth at […],"Botrytis cinerea; I.M alone, 0.25 ppm",2%
same,inhibition of growth at 1 ppm,Botrytis cinerea; I.M alone,0%
same,inhibition of growth at 4 ppm,Botrytis cinerea; I.M alone,15%
same,inhibition of growth at 1 ppm,Pyricularia oryzae,9%
same,inhibition of growth at 4 ppm,Pyricularia oryzae,32%
same,inhibition of growth at 0.004 ppm,Leptosphaeria nodorum; [9],6%
same,inhibition of growth at […],"Leptosphaeria nodorum; Parastagonospora nodorum, 168 h, 0.016 ppm, read-out: Observed efficacy",5%
same,inhibition of growth at […],Leptosphaeria nodorum; [8],7%
same,inhibition of growth at 1 ppm,Leptosphaeria nodorum; [6],18%
same,inhibition of growth at 4 ppm,Leptosphaeria nodorum; [6],52%
same,inhibition of growth at 6.3e-05 ppm,[1]; [3],2%
same,inhibition of growth at […],[1]; [12],2%
same,inhibition of growth at 0.001 ppm,[1]; [13],1%
same,inhibition of growth at 0.004 ppm,[1]; [3],1%
same,inhibition of growth at […],[1]; [10],7%
"CCN(C)C=Nc1cc(Br)c(OC2CCC(C(C)C)CC2)nc1C (stereo not shown) [K.1.32, N′-[5-bromo-6-(4-isopropylcyclohexoxy)-2-methyl-3-pyridyl]-N-ethyl-N-methyl-formamidine]",inhibition of growth at […],Septoria tritici; [7],0%
same,inhibition of growth at 1 ppm,"Septoria tritici; Table V.4, component B alone",0%
same,inhibition of growth at […],Leptosphaeria nodorum; [8],40%
same,inhibition of growth at […],[1]; [5],26%
"CC(O)(Cn1cncn1)c1ccc(Oc2ccc(Cl)cc2)cc1C(F)(F)F (stereo not shown) [Mefentrifluconazol, mefentrifluconazole]",Observed efficacy,Leptosphaeria nodorum; 0.004 ppm,53
same,Observed efficacy,[1]; 0.001 ppm,1
"CNC(=O)/C(=N/OC)c1ccccc1Oc1ccccc1 [Metominostrobin, metominostrobin]",inhibition of growth at 1 ppm,"Septoria tritici; Table V.4, component B alone",46%
same,inhibition of growth at 1 ppm,Pyricularia oryzae,59%
same,inhibition of growth at 1 ppm,Leptosphaeria nodorum; [6],43%

# — patent publication US20210084902A1, “FUNGICIDAL MIXTURE COMPRISING SUBSTITUTED 3-PHENYL-5-(TRIFLUOROMETHYL)-1,2,4-OXADIAZOLES” (BASF SE, priority 2017, published 2021)
